Article PMC5453487, “Targeting YAP/TAZ-TEAD protein-protein interactions using fragment-based and computational modeling approaches” (PLoS ONE, 2017)

Molecular target: mouse TEAD4 (mTEAD4) (Mus musculus, UniProt Q62296)
Experiment: X-ray co-crystal structure ([…] Å), ITC; also thermal shift assay and MST ([…])
Type: binding

Chain of mouse TEAD4 (mTEAD4) (Q62296 210-427): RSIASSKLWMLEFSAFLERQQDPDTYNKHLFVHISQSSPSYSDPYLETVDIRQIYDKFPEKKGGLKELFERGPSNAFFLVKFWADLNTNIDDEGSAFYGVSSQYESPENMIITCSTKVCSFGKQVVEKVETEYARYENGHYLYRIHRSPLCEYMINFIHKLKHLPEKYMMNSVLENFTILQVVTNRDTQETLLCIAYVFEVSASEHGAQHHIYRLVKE

With O=C(O)C(c1ccccc1)n1cccc1 (stereo not shown) [compound 1, fragment 1] as the compound, how does the Kd read?
The Kd was roughly 300 µM.
